Experimental data from ChEMBL document CHEMBL1131435, “Biphenylsulfonamide endothelin antagonists: structure-activity relationships of a series of mono- and disubstituted analogues and pharmacology of the orally active endothelin antagonist 2'-amino-N- (3,4-dimethyl-5-isoxazolyl)-4'-(2-methylpropyl)[1, 1'-biphenyl]-2-sulfonamide (BMS-187308)” (J Med Chem, 1998).
Where a SMILES comes first, the peptide text is derived from it.

Assays:
Endothelin-1 receptor = target: T1, Endothelin-1 receptor (Rattus norvegicus, UniProt P26684); assay: Ability to inhibit binding of [125I]ET1 to membranes prepared from A10 rat thoracic aorta smooth muscle Endothelin A receptor; type: tissue-based
T1 sequence (P26684 whole entry): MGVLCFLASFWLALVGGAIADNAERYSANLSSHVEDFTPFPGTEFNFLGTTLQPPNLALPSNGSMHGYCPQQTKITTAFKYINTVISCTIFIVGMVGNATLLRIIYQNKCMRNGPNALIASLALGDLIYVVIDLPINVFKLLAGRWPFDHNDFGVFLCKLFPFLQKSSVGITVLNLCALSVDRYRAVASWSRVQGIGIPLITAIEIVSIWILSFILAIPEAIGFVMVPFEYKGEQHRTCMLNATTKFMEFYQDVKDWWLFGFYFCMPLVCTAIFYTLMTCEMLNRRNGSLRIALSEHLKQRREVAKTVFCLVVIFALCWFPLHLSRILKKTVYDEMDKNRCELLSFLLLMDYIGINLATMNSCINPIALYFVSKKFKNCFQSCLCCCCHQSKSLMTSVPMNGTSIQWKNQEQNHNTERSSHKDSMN

[1] = target: T2, Endothelin receptor type B (Rattus norvegicus, UniProt P21451); assay: Ability to inhibit binding of [125I]-ET-1 to membranes prepared from […] rat cerebellum (Endothelin B receptor); type: tissue-based
T2 sequence (P21451 whole entry): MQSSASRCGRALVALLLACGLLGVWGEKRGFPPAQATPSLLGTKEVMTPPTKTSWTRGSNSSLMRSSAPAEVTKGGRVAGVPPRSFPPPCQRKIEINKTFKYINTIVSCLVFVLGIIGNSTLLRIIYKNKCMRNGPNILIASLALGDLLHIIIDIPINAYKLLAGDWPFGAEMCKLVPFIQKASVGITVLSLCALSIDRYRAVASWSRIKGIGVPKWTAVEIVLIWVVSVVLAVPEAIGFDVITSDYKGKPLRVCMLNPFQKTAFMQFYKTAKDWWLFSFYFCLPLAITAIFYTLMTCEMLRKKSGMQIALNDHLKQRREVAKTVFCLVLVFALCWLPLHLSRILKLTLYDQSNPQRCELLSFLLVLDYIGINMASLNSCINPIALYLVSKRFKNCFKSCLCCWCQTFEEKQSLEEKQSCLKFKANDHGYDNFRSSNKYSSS

SMILES	Ki (Endothelin-1 receptor) [nM]	Ki [1] [nM]
Cc1noc(NS(=O)(=O)c2ccccc2-c2ccc(CC(C)C)cc2)c1C	18	1700
Cc1noc(NS(=O)(=O)c2ccccc2-c2ccc(CC(C)C)cc2N)c1C	4.7	1700
CCCNc1cc(CC(C)C)ccc1-c1ccccc1S(=O)(=O)Nc1onc(C)c1C	29	3700
Cc1noc(NS(=O)(=O)c2ccccc2Oc2ccccc2)c1C	2100	–
Cc1noc(NS(=O)(=O)c2ccccc2-c2ccc(OCc3ccccc3)cc2)c1C	190	8400
Cc1noc(NS(=O)(=O)c2ccc(NC(=O)CN)cc2-c2ccc(CC(C)C)cc2)c1C	1200	7400
Cc1noc(NS(=O)(=O)c2ccccc2-c2ccc(S(=O)(=O)C(C)C)cc2)c1C	110	170000
Cc1noc(NS(=O)(=O)c2cccc(OCCO)c2-c2ccc(CC(C)C)cc2)c1C	2.7	2300
CCCc1ccc(-c2ccccc2S(=O)(=O)Nc2onc(C)c2C)cc1	28	15000
CCNc1cc(CC(C)C)ccc1-c1ccccc1S(=O)(=O)Nc1onc(C)c1C	6.3	1400
Cc1[n-][o+]c(NS(=O)(=O)c2ccccc2-c2ccc(CC(C)C)cc2)c1[N+](=O)[O-]	–	30000
Cc1noc(NS(=O)(=O)c2ccccc2-c2ccccc2CO)c1C	40	> 200000
Cc1noc(NS(=O)(=O)c2ccccc2-c2ccc(CC(C)C)cc2CO)c1C	20	1300
Cc1noc(NS(=O)(=O)c2ccccc2-c2ccc(CC(C)C)cc2N(C)C)c1C	330	> 100000
Cc1noc(NS(=O)(=O)c2ccccc2-c2ccc(CC(C)C)cc2NC(C)C)c1C	34	2900
CCOC(=O)c1c(C)noc1NS(=O)(=O)c1ccccc1-c1ccc(CC(C)C)cc1	7200	42000

SMILES	Ki (Endothelin-1 receptor) [nM]	Ki [1] [nM]
Cc1noc(NS(=O)(=O)c2ccccc2-c2ccccc2)c1C	–	> 200000
Cc1noc(NS(=O)(=O)c2ccccc2C(C)C)c1C	600	–
Cc1noc(NS(=O)(=O)c2ccc(NC(=O)c3ccccc3)cc2-c2ccc(CC(C)C)cc2)c1C	5800	38000
Cc1noc(NS(=O)(=O)c2ccccc2-c2ccc(CCC(C)C)cc2)c1C	80	30000
Cc1noc(NS(=O)(=O)c2ccccc2-c2ccc(OCC(C)C)cc2)c1C	32	2800
Cc1noc(NS(=O)(=O)c2ccccc2-c2ccccc2N)c1C	16	> 200000
Cc1noc(NS(=O)(=O)c2ccccc2-c2ccc(CC(C)C)cc2NC=O)c1C	17	6900
COc1cc(OC)nc(NS(=O)(=O)c2ccccc2-c2ccc(CC(C)C)cc2)n1	3900	50000
Cc1noc(NS(=O)(=O)c2ccccc2-c2ccc(CC(C)C)cc2F)c1C	20	12000
Cc1noc(NS(=O)(=O)c2ccccc2-c2cccc(CC(C)C)c2)c1C	190	5600
Cc1noc(NS(=O)(=O)c2ccccc2-c2ccccc2N(C)C)c1C	103	> 200000
COc1ccc(-c2ccccc2S(=O)(=O)Nc2onc(C)c2C)cc1	33	250000
Cc1onc(NS(=O)(=O)c2ccccc2-c2ccc(CC(C)C)cc2)c1C	13	2000
Cc1noc(NS(=O)(=O)c2ccccc2F)c1C	4700	–
Cc1noc(NS(=O)(=O)c2cccc3c(N(C)C)cccc23)c1C [BMS-182874]	55	> 200000

More lines, now with the values ahead:

Ki (Endothelin-1 receptor) [nM]	Ki [1] [nM]	SMILES
100	12000	Cc1noc(NS(=O)(=O)c2ccccc2-c2ccc(CC(C)C)cc2C(N)=O)c1C
14	2200	CNc1cc(CC(C)C)ccc1-c1ccccc1S(=O)(=O)Nc1onc(C)c1C
24000	> 200000	CC(C)Cc1ccc(-c2ccccc2S(=O)(=O)Nc2onc3c2CCCC3)cc1
74	54000	COc1cc(CC(C)C)ccc1-c1ccccc1S(=O)(=O)Nc1onc(C)c1C
970	100000	Cc1cnoc1NS(=O)(=O)c1ccccc1-c1ccc(CC(C)C)cc1
–	26000	Cc1noc(NS(=O)(=O)c2ccccc2-c2ccc(CC(C)C)cc2C(=O)O)c1C
42	4000	Cc1noc(NS(=O)(=O)c2cccc(OCC(=O)O)c2-c2ccc(CC(C)C)cc2)c1C
1300	19000	Cc1cccc(-c2ccc(CC(C)C)cc2)c1S(=O)(=O)Nc1onc(C)c1C
60	20000	Cc1noc(NS(=O)(=O)c2ccccc2-c2ccc(N(C)C(C)C)cc2)c1C
500	24000	Cc1noc(NS(=O)(=O)c2cc(O)ccc2-c2ccc(CC(C)C)cc2)c1C
43	5400	CNC(=O)Nc1cc(CC(C)C)ccc1-c1ccccc1S(=O)(=O)Nc1onc(C)c1C
–	9800	CC(=O)Nc1ccc(S(=O)(=O)Nc2onc(C)c2C)c(-c2ccc(CC(C)C)cc2)c1
400	44000	CC(C)Cc1ccc(-c2ccccc2S(=O)(=O)Nc2ccc(Cl)nn2)cc1
700	–	Cc1noc(NS(=O)(=O)c2ccccc2C(F)(F)F)c1C
2	1200	Cc1noc(NS(=O)(=O)c2ccccc2-c2ccc(CC(C)C)cc2CNC=O)c1C
3500	–	Cc1[n-][o+]c(NS(=O)(=O)c2ccccc2[N+](=O)[O-])c1C
37	1900	CCCCc1ccc(-c2ccccc2S(=O)(=O)Nc2onc(C)c2C)cc1
6400	> 200000	Cc1noc(NS(=O)(=O)c2ccccc2-c2ccc(CC(C)C)cc2)c1Cc1ccccc1
61	15000	Cc1noc(NS(=O)(=O)c2ccccc2-c2ccc(C(C)(C)C)cc2)c1C
50	17000	Cc1noc(NS(=O)(=O)c2ccccc2-c2ccc(NC(C)C)cc2)c1C
6.4	1600	Cc1noc(NS(=O)(=O)c2ccccc2-c2ccc(CC(C)C)cc2NCCO)c1C
17	1500	Cc1noc(NS(=O)(=O)c2ccccc2-c2ccc(OC(C)C)cc2)c1C

Ki (Endothelin-1 receptor) [nM]	Ki [1] [nM]	SMILES
39	5700	Cc1noc(NS(=O)(=O)c2ccccc2-c2ccc(SC(C)C)cc2)c1C
50	19000	Cc1noc(NS(=O)(=O)c2ccccc2-c2ccc(C(C)C)cc2)c1C
–	> 200000	Cc1noc(NS(=O)(=O)c2ccccc2-c2ccc(C(=O)O)cc2)c1C
112	> 200000	Cc1noc(NS(=O)(=O)c2ccccc2-c2cccc(N(C)C)c2)c1C
> 20000	> 200000	Cc1noc(NS(=O)(=O)c2cc(OCc3ccccc3)ccc2-c2ccc(CC(C)C)cc2)c1C
54	6000	Cc1noc(NS(=O)(=O)c2ccccc2-c2ccc(N(C)C)cc2)c1C
560	> 200000	Cc1noc(NS(=O)(=O)c2ccccc2-c2ccc(S(=O)(=O)N(C)C)cc2)c1C
140	> 200000	Cc1noc(NS(=O)(=O)c2ccccc2-c2ccccc2[N+](=O)[O-])c1C
89	12000	Cc1noc(NS(=O)(=O)c2ccccc2-c2ccc(CC(C)C)cc2NCC(=O)O)c1C
55	23000	Cc1ccc(-c2ccccc2S(=O)(=O)Nc2onc(C)c2C)cc1
5	19000	Cc1cc(CC(C)C)ccc1-c1ccccc1S(=O)(=O)Nc1onc(C)c1C
550	1900	Cc1noc(NS(=O)(=O)c2ccc(NCC(=O)O)cc2-c2ccc(CC(C)C)cc2)c1C
110	4100	Cc1noc(NS(=O)(=O)c2ccccc2-c2ccc(CC(C)(C)C)cc2)c1C
370	6200	COc1ccc(S(=O)(=O)Nc2onc(C)c2C)c(-c2ccc(CC(C)C)cc2)c1
14	2100	Cc1noc(NS(=O)(=O)c2ccc(N)cc2-c2ccc(CC(C)C)cc2)c1C
5	940	Cc1noc(NS(=O)(=O)c2cccc(O)c2-c2ccc(CC(C)C)cc2)c1C
16	2000	COc1cccc(S(=O)(=O)Nc2onc(C)c2C)c1-c1ccc(CC(C)C)cc1
8	9800	Cc1noc(NS(=O)(=O)c2ccccc2-c2ccc(CC(C)C)cc2O)c1C
100	9600	Cc1noc(NS(=O)(=O)c2ccccc2-c2ccc(CC(C)C)cc2CN)c1C
62	> 200000	Cc1noc(NS(=O)(=O)c2ccccc2-c2cccc(N)c2)c1C
40	–	CC(C)C[C@@H]1NC(=O)[C@@H](C(C)C)NC(=O)[C@@H]2CCCN2C(=O)[C@@H](CC(=O)O)NC(=O)[C@@H](Cc2c[nH]c3ccccc23)NC1=O [BQ-123] (HELM PEPTIDE1{L.[dW].[dD].P.[dV]}$PEPTIDE1,PEPTIDE1,1:R1-5:R2$$$V2.0)
